Each block holds one molecule with its values, some of them ahead of it.
Experiments:
[1] = target: T1, Amine oxidase [flavin-containing] B (Homo sapiens, UniProt P27338); assay: Reversible inhibition of recombinant human MAO-B expressed in baculovirus infected BT1 cells using benzylamine as substrate at 200 uM preincubated for 30 mins by Lineweaver-Burk plot analysis
T1 sequence (P27338 whole entry): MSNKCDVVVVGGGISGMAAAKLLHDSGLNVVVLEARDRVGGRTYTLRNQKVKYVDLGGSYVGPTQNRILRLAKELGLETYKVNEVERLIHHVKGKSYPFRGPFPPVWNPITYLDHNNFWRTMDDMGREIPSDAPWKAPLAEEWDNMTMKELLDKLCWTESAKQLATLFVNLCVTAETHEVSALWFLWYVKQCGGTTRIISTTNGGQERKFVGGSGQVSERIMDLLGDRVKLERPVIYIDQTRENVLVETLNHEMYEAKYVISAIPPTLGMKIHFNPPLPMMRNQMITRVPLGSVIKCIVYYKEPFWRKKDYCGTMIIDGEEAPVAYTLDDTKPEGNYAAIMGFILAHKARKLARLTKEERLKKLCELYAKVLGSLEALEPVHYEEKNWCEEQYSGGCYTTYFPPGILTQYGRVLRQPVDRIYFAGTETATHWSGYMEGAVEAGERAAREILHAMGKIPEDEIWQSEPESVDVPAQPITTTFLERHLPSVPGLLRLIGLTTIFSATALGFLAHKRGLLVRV

[2] = target: T2, Amine oxidase [flavin-containing] A (Homo sapiens, UniProt P21397); assay: Ratio of relative Vmax to Km for recombinant human MAO-A expressed in baculovirus infected BT1 cells assessed as hydrogen peroxide generation rate using p-tyramine as substrate at 200 uM preincubated for 30 mins by Amplex Red assay
T2 sequence (P21397 whole entry): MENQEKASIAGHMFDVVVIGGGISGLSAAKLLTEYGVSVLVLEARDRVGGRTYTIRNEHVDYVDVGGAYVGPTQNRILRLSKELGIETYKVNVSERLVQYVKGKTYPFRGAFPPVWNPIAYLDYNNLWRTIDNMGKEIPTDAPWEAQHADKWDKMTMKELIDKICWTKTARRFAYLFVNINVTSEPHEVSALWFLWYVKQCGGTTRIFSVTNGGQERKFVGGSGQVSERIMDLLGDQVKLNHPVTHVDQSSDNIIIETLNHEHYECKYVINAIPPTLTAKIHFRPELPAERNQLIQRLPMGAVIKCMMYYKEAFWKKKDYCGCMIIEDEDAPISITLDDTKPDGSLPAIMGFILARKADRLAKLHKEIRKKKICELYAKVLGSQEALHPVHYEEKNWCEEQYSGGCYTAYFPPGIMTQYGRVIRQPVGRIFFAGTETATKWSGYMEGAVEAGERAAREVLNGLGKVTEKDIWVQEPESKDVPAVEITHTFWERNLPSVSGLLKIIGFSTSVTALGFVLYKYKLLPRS

[3] = target: T2, Amine oxidase [flavin-containing] A; assay: Mixed type inhibition of recombinant human MAO-A expressed in baculovirus infected BT1 cells using p-tyramine as substrate by Lineweaver-Burk plot analysis
[4] = target: T1, Amine oxidase [flavin-containing] B; assay: Mixed type inhibition of recombinant human MAO-B expressed in baculovirus infected BT1 cells using benzylamine as substrate at 200 uM preincubated for 30 mins by Lineweaver-Burk plot analysis
[5] = target: T1, Amine oxidase [flavin-containing] B; assay: Activity at recombinant human MAO-B expressed in baculovirus infected BT1 cells assessed as hydrogen peroxide generation rate per min/mg using benzylamine as substrate at 200 uM preincubated for 30 mins by Amplex Red assay relative to control
[6] = target: T2, Amine oxidase [flavin-containing] A; assay: Activity at recombinant human MAO-A expressed in baculovirus infected BT1 cells assessed as hydrogen peroxide generation rate per min/mg using p-tyramine as substrate at 200 uM preincubated for 30 mins by Amplex Red assay relative to control
[7] = target: T1, Amine oxidase [flavin-containing] B; assay: Ratio of relative Vmax to Km for recombinant human MAO-B expressed in baculovirus infected BT1 cells assessed as hydrogen peroxide generation rate using benzylamine as substrate at 200 uM preincubated for 30 mins by Amplex Red assay
[8] = target: T2, Amine oxidase [flavin-containing] A; assay: Reversible inhibition of recombinant human MAO-A expressed in baculovirus infected BT1 cells using p-tyramine as substrate by Lineweaver-Burk plot analysis
[9] = target: T2, Amine oxidase [flavin-containing] A; assay: Activity at recombinant human MAO-A expressed in baculovirus infected BT1 cells assessed as hydrogen peroxide generation rate using p-tyramine as substrate at 500 uM preincubated for 30 mins by Amplex Red assay relative to control
[10] = target: T2, Amine oxidase [flavin-containing] A; assay: Ratio of relative Vmax to Km for recombinant human MAO-A expressed in baculovirus infected BT1 cells assessed as hydrogen peroxide generation rate using p-tyramine as substrate at 500 uM preincubated for 30 mins by Amplex Red assay
[11] = target: T1, Amine oxidase [flavin-containing] B; assay: Activity at recombinant human MAO-B expressed in baculovirus infected BT1 cells assessed as hydrogen peroxide generation rate using benzylamine as substrate at 500 uM preincubated for 30 mins by Amplex Red assay relative to control
[12] = target: T1, Amine oxidase [flavin-containing] B; assay: Activity at recombinant human MAO-B expressed in baculovirus infected BT1 cells assessed as hydrogen peroxide generation rate using benzylamine as substrate at 500 uM preincubated for 30 mins by Amplex Red assay
[13] = target: T1, Amine oxidase [flavin-containing] B; assay: Ratio of relative Vmax to Km for recombinant human MAO-B expressed in baculovirus infected BT1 cells assessed as hydrogen peroxide generation rate using benzylamine as substrate at 500 uM preincubated for 30 mins by Amplex Red assay
[14] = target: T2, Amine oxidase [flavin-containing] A; assay: Activity at recombinant human MAO-A expressed in baculovirus infected BT1 cells assessed as hydrogen peroxide generation rate using p-tyramine as substrate at 500 uM preincubated for 30 mins by Amplex Red assay
[15] = target: T1, Amine oxidase [flavin-containing] B; assay: Activity at recombinant human MAO-B expressed in baculovirus infected BT1 cells assessed as hydrogen peroxide generation rate preincubated for 30 mins by Amplex Red assay relative to control
[16] = target: T1, Amine oxidase [flavin-containing] B; assay: Ratio of relative Vmax to Km for recombinant human MAO-B expressed in baculovirus infected BT1 cells assessed as hydrogen peroxide generation rate preincubated for 30 mins by Amplex Red assay; settings: 0.5 h
[17] = target: T2, Amine oxidase [flavin-containing] A; assay: Ratio of relative Vmax to Km for recombinant human MAO-A expressed in baculovirus infected BT1 cells assessed as hydrogen peroxide generation rate preincubated for 30 mins by Amplex Red assay; settings: 0.5 h
[18] = target: T2, Amine oxidase [flavin-containing] A; assay: Activity at recombinant human MAO-A expressed in baculovirus infected BT1 cells assessed as hydrogen peroxide generation rate preincubated for 30 mins by Amplex Red assay relative to control
[19] = target: T2, Amine oxidase [flavin-containing] A; assay: Activity at recombinant human MAO-A expressed in baculovirus infected BT1 cells assessed as hydrogen peroxide generation rate preincubated for 30 mins by Amplex Red assay; settings: 0.5 h
[20] = Cytotoxicity against human SH-SY5Y cells after 24 hrs by Annexin V-PE-based flow cytometry; format: cell-based; settings: for IC50: Homo sapiens, SH-SY5Y; for Activity: human, sh-sy5y
[21] = target: T2, Amine oxidase [flavin-containing] A; assay: Competitive inhibition of MAOA in human SH-SY5Y cells using p-tyramine as substrate preincubated for 5 mins by Lineweaver-Burk plot analysis; format: cell-based
[22] = target: T2, Amine oxidase [flavin-containing] A; assay: Inhibition of recombinant human MAO-A expressed in baculovirus infected BT1 cells using p-tyramine as substrate after 20 to 80 mins by Lineweaver-Burk plot analysis
[23] = target: T2, Amine oxidase [flavin-containing] A; assay: Inhibition of recombinant human MAO-A expressed in baculovirus infected BT1 cells assessed as residual activity using p-tyramine as substrate at 100 uM after 10 mins; settings: read-out: Activity
[24] = target: T2, Amine oxidase [flavin-containing] A; assay: Inhibition of recombinant human MAO-A expressed in baculovirus infected BT1 cells assessed as residual activity using p-tyramine as substrate at 100 uM preincubated for 24 hrs measured after 10 mins; settings: read-out: Activity
[25] = target: T2, Amine oxidase [flavin-containing] A; assay: Inhibition of recombinant human MAO-A expressed in baculovirus infected BT1 cells using p-tyramine as substrate at 20 to 240 uM by Lineweaver-Burk plot analysis
[26] = target: T2, Amine oxidase [flavin-containing] A; assay: Inhibition of recombinant human MAO-A expressed in baculovirus infected BT1 cells assessed as residual activity using p-tyramine as substrate at 50 uM at 37 degC
[27] = target: T2, Amine oxidase [flavin-containing] A; assay: Inhibition of recombinant human MAO-A expressed in baculovirus infected BT1 cells assessed as residual activity using p-tyramine as substrate at 50 uM at 25 degC
[28] = target: T2, Amine oxidase [flavin-containing] A; assay: Ratio of residual Vmax to Km for recombinant human MAO-A expressed in baculovirus infected BT1 cells assessed as residual activity using benzylamine as substrate at 20 uM preincubated for 30 mins by Amplex Red assay
[29] = target: T2, Amine oxidase [flavin-containing] A; assay: Irreversible inhibition of recombinant human MAO-A expressed in baculovirus infected BT1 cells using p-tyramine as substrate by Lineweaver-Burk plot analysis
[30] = target: T1, Amine oxidase [flavin-containing] B; assay: Ratio of residual Vmax to Km for recombinant human MAO-B expressed in baculovirus infected BT1 cells assessed as residual activity using benzylamine as substrate at 20 uM preincubated for 30 mins by Amplex Red assay
[31] = target: T1, Amine oxidase [flavin-containing] B; assay: biochemical; format: cell-based
[32] = target: T1, Amine oxidase [flavin-containing] B; assay: Activity at recombinant human MAO-B expressed in baculovirus infected BT1 cells assessed as hydrogen peroxide generation rate preincubated for 30 mins by Amplex Red assay

Structure (SMILES): NCCCNCCCCNCCCNCc1ccccc1
Ki [1]: 785 µM
fold change (FC) [2]: 0.38
Ki [3]: 170 µM
Ki [4]: 291 µM
fold change (FC) [5]: 0.97
fold change (FC) [6]: 0.48
fold change (FC) [7]: 0.66
Ki [8]: 188 µM

Structure (SMILES): CN(CCCCCCCCCCCCN=C=S)Cc1ccccc1
Ki [21]: 4.9 µM
inhibition (INH) [22]: Dose-dependent effect
activity at 100 µM [23]: 64%
IC50 [20]: 180 µM
Activity [20]: Dose-dependent effect
activity at 100 µM [24]: 100%
inhibition (INH) [25]: Dose-dependent effect
kinact [26]: 0.00075 s⁻¹
kinact [27]: 0.0002 s⁻¹
fold change (FC) [28]: 0.22
Ki [29]: 5 µM
fold change (FC) [30]: 0.2
Ki [31]: 9 µM

Structure (SMILES): CN(CCCCCCCCCCCCN)Cc1ccccc1
fold change (FC) [15]: 0.24
fold change (FC) [16]: 17.5
fold change (FC) [17]: 0.6
fold change (FC) [18]: 0.03

Structure (SMILES): c1ccc(CNCCCCCCCCCCCCNCc2ccccc2)cc1
Ki [1]: 1050 µM
fold change (FC) [2]: 0.29
Ki [3]: 55 µM
Ki [4]: 129 µM
fold change (FC) [5]: 0.62
fold change (FC) [6]: 0.52
fold change (FC) [7]: 0.37
Ki [8]: 186 µM

Structure (SMILES): NCCCNCCCCNCCCNCc1ccc2ccccc2c1
fold change (FC) [2]: 0.62
Activity [19]: Not Active
Activity [32]: Not Active
fold change (FC) [5]: 0.81
fold change (FC) [6]: 0.52
fold change (FC) [7]: 0.91

Structure (SMILES): NCCCNCCCCNCCCNCc1cccnc1
fold change (FC) [2]: 0.72
Activity [19]: Not Active
Activity [32]: Not Active
fold change (FC) [5]: 0.93
fold change (FC) [6]: 0.52
fold change (FC) [7]: 0.72

Structure (SMILES): C=CCN=C=S [ALLYL ISOTHIOCYANATE]
fold change (FC) [28]: 1
fold change (FC) [30]: 0.98

Structure (SMILES): NCCCNCCCCNCCCN [SPERMINE]
fold change (FC) [2]: 0.86
fold change (FC) [5]: 0.98
fold change (FC) [6]: 0.77
fold change (FC) [7]: 0.76

Structure (SMILES): C[S+]([O-])CCCCN=C=S (stereo not drawn) [SULFORAPHANE]
IC50 [20]: 20 µM
fold change (FC) [28]: 0.78
fold change (FC) [30]: 1.01

More lines, main results first:

fold change (FC) [2]: 0.69
fold change (FC) [9]: < 0.01
fold change (FC) [10]: < 0.01
fold change (FC) [5]: 0.71
fold change (FC) [11]: < 0.01
fold change (FC) [6]: 0.96
Km [12]: < 0.01 µM
fold change (FC) [7]: 0.75
fold change (FC) [13]: < 0.01
Km [14]: < 0.01 µM
Structure (SMILES): NCCCCCCCCNCCCNCc1cccs1

fold change (FC) [15]: 0.53
fold change (FC) [16]: 12
fold change (FC) [17]: 0.29
fold change (FC) [18]: 0.1
Structure (SMILES): NCCCCCCCCCCCCNCc1cccs1

Km [19]: > 1200 µM
fold change (FC) [15]: 0.19
fold change (FC) [16]: 0.21
fold change (FC) [17]: 0.06
Structure (SMILES): NCCCOCCCCOCCCNCc1cccs1

fold change (FC) [15]: 1
fold change (FC) [16]: 18.6
fold change (FC) [17]: 0.4
fold change (FC) [18]: 0.08
Structure (SMILES): NCCCCCCCCCCCCNCc1ccccc1
IC50 [20]: 327 µM
Activity [20]: Dose-dependent effect

Ki [1]: 414 µM
fold change (FC) [2]: 0.57
Activity [19]: Not Active
Activity [32]: Not Active
Ki [3]: 226 µM
Ki [4]: 23 µM
fold change (FC) [5]: 0.63
fold change (FC) [6]: 0.52
fold change (FC) [7]: 0.05
Ki [8]: 997 µM
Structure (SMILES): NCCCNCCCCNCCCNCc1cccs1

Source: ChEMBL document CHEMBL3085760, “Novel polyamine analogues: from substrates towards potential inhibitors of monoamine oxidases” (Eur J Med Chem, 2013)
